Measured values taken from the NIST ThermoML archive (doi:10.1016/j.jct.2007.07.002).
± gives the expanded uncertainty stated by the source.

Conditions: Gas, double Helmholtz acoustic resonator

FS(F)(F)(F)(F)F [sulfur hexafluoride]
273.16 K
Conditions	kinematic viscosity [m2/s]	speed of sound [m/s]
290.38 kPa	7.19e-07 ± 8.6e-09	126.14 ± 0.029
386.66 kPa	5.33e-07 ± 6.4e-09	124.46 ± 0.029
492.4 kPa	4.1e-07 ± 4.9e-09	122.54 ± 0.028
602.05 kPa	3.28e-07 ± 3.9e-09	120.45 ± 0.028
712.29 kPa	2.72e-07 ± 3.3e-09	118.25 ± 0.027
808.73 kPa	2.35e-07 ± 2.8e-09	116.21 ± 0.027
903.28 kPa	2.24e-07	114.14 ± 0.16
1000.5 kPa	1.81e-07 ± 4.4e-09	111.81 ± 0.026

O=C=O [carbon dioxide]
Conditions	kinematic viscosity [m2/s]	speed of sound [m/s]
220 K, 195.46 kPa	2.37e-06 ± 6.6e-08	231.7 ± 0.048
220 K, 226.71 kPa	2e-06 ± 2.4e-08	231.05 ± 0.047
220 K, 254.44 kPa	1.79e-06 ± 2.2e-08	230.53 ± 0.047
220 K, 288.21 kPa	1.56e-06 ± 1.9e-08	229.81 ± 0.047
220 K, 324.47 kPa	1.37e-06 ± 1.6e-08	229.07 ± 0.047
220 K, 362.71 kPa	1.22e-06 ± 2.6e-08	228.29 ± 0.047
220 K, 393.15 kPa	1.12e-06 ± 1.4e-08	227.64 ± 0.047
220 K, 425.51 kPa	1.03e-06 ± 1.2e-08	226.95 ± 0.047
220 K, 449.74 kPa	9.7e-07 ± 1.2e-08	226.42 ± 0.047
220 K, 479.78 kPa	9.02e-07 ± 1.1e-08	225.76 ± 0.047
235 K, 224.78 kPa	2.31e-06 ± 2.8e-08	238.87 ± 0.049
235 K, 359.42 kPa	1.42e-06 ± 1.7e-08	236.69 ± 0.049
235 K, 452.88 kPa	1.11e-06 ± 1.3e-08	235.12 ± 0.048
235 K, 545.18 kPa	9.13e-07 ± 1.1e-08	233.52 ± 0.048
235 K, 638.46 kPa	7.66e-07 ± 9.2e-09	231.87 ± 0.048
235 K, 723.88 kPa	6.71e-07 ± 8.1e-09	230.31 ± 0.048
235 K, 803.31 kPa	5.95e-07 ± 9.8e-09	228.81 ± 0.047
250 K, 274.2 kPa	2.15e-06 ± 2.6e-08	245.57 ± 0.05
250 K, 372.33 kPa	1.57e-06 ± 1.9e-08	244.25 ± 0.05
250 K, 491.25 kPa	1.17e-06 ± 1.4e-08	242.62 ± 0.05
250 K, 595.84 kPa	9.53e-07 ± 1.1e-08	241.15 ± 0.049
250 K, 702.28 kPa	7.98e-07 ± 9.6e-09	239.62 ± 0.049
250 K, 818.89 kPa	6.75e-07 ± 8.1e-09	237.9 ± 0.049
250 K, 953.03 kPa	5.71e-07 ± 6.9e-09	235.87 ± 0.049
250 K, 1060.2 kPa	5.07e-07 ± 6.1e-09	234.18 ± 0.048
250 K, 1177.6 kPa	4.5e-07 ± 5.4e-09	232.28 ± 0.048
250 K, 1291.6 kPa	4.03e-07 ± 4.8e-09	230.37 ± 0.048
250 K, 1438.2 kPa	3.54e-07 ± 4.3e-09	227.81 ± 0.048
270 K, 196.61 kPa	3.5e-06 ± 1.2e-07	255.77 ± 0.12
270 K, 354.95 kPa	1.95e-06 ± 9.6e-08	254.13 ± 0.094
270 K, 526.01 kPa	1.29e-06 ± 1.5e-08	252.3 ± 0.051
270 K, 705.02 kPa	9.47e-07 ± 1.1e-08	250.33 ± 0.051
270 K, 898.25 kPa	7.28e-07 ± 8.7e-09	248.16 ± 0.051
270 K, 1076.5 kPa	5.99e-07 ± 7.2e-09	246.1 ± 0.051
270 K, 1287.1 kPa	4.91e-07 ± 5.9e-09	243.58 ± 0.05
270 K, 1446.7 kPa	4.31e-07 ± 5.2e-09	241.62 ± 0.05
270 K, 1630 kPa	3.76e-07 ± 4.5e-09	239.29 ± 0.05
270 K, 1846 kPa	3.26e-07 ± 3.9e-09	236.43 ± 0.049
270 K, 2079.6 kPa	2.84e-07 ± 3.4e-09	233.19 ± 0.049
270 K, 2316.1 kPa	2.49e-07 ± 3e-09	229.71 ± 0.048
270 K, 2509.6 kPa	2.26e-07 ± 4.2e-09	226.69 ± 0.048
285 K, 371.48 kPa	2.07e-06 ± 2.5e-08	260.81 ± 0.053
285 K, 575.25 kPa	1.31e-06 ± 1.6e-08	258.96 ± 0.053
285 K, 787.74 kPa	9.44e-07 ± 1.1e-08	257 ± 0.052
285 K, 1013 kPa	7.22e-07 ± 8.7e-09	254.87 ± 0.052
285 K, 1228.5 kPa	5.87e-07 ± 7e-09	252.79 ± 0.052
285 K, 1500.4 kPa	4.72e-07 ± 5.7e-09	250.09 ± 0.051
285 K, 1707.2 kPa	4.09e-07 ± 4.9e-09	247.98 ± 0.051
285 K, 1947.2 kPa	3.52e-07 ± 4.2e-09	245.46 ± 0.051
285 K, 2221.2 kPa	3.03e-07 ± 3.6e-09	242.48 ± 0.05
285 K, 2559.7 kPa	2.58e-07 ± 3.1e-09	238.62 ± 0.05
285 K, 2841.9 kPa	2.27e-07 ± 2.7e-09	235.23 ± 0.05
285 K, 3057.8 kPa	2.06e-07 ± 2.5e-09	232.51 ± 0.049
300 K, 313.43 kPa	2.72e-06 ± 3.3e-08	267.83 ± 0.054
300 K, 531.89 kPa	1.58e-06 ± 1.9e-08	266.16 ± 0.054
300 K, 748.54 kPa	1.11e-06 ± 1.3e-08	264.48 ± 0.054
300 K, 993.26 kPa	8.26e-07 ± 9.9e-09	262.55 ± 0.053
300 K, 1237 kPa	6.54e-07 ± 7.8e-09	260.6 ± 0.053
300 K, 1526.1 kPa	5.22e-07 ± 6.3e-09	258.23 ± 0.053
300 K, 1747.8 kPa	4.5e-07 ± 5.4e-09	256.38 ± 0.053
300 K, 1991.5 kPa	3.9e-07 ± 4.7e-09	254.3 ± 0.052
300 K, 2272.2 kPa	3.37e-07 ± 4e-09	251.86 ± 0.052
300 K, 2577.9 kPa	2.92e-07 ± 3.5e-09	249.12 ± 0.052
300 K, 2893.9 kPa	2.57e-07 ± 3.1e-09	246.21 ± 0.051
300 K, 3145.8 kPa	2.33e-07 ± 2.8e-09	243.81 ± 0.051
304.77 K, 317.81 kPa	2.78e-06 ± 3.3e-08	269.84 ± 0.055
304.77 K, 527.05 kPa	1.65e-06 ± 2e-08	268.3 ± 0.054
304.77 K, 745.25 kPa	1.15e-06 ± 1.4e-08	266.69 ± 0.054
304.77 K, 979.77 kPa	8.66e-07 ± 1e-08	264.94 ± 0.054
304.77 K, 1201.7 kPa	6.98e-07 ± 8.4e-09	263.26 ± 0.054
304.77 K, 1478.9 kPa	5.59e-07 ± 6.7e-09	261.12 ± 0.053
304.77 K, 1699.4 kPa	4.82e-07 ± 5.8e-09	259.4 ± 0.053
304.77 K, 1950 kPa	4.14e-07 ± 5e-09	257.4 ± 0.053
304.77 K, 2235.2 kPa	3.57e-07 ± 4.3e-09	255.09 ± 0.052
304.77 K, 2552.7 kPa	3.07e-07 ± 3.7e-09	252.45 ± 0.052
304.77 K, 2881 kPa	2.69e-07 ± 4e-09	249.66 ± 0.052
304.77 K, 3135.9 kPa	2.44e-07 ± 2.9e-09	247.43 ± 0.052
310 K, 342.08 kPa	2.66e-06 ± 3.2e-08	271.86 ± 0.055
310 K, 552.05 kPa	1.63e-06 ± 2e-08	270.4 ± 0.055
310 K, 773.76 kPa	1.15e-06 ± 1.4e-08	268.86 ± 0.055
310 K, 1018 kPa	8.63e-07 ± 1e-08	267.13 ± 0.054
310 K, 1259.3 kPa	6.9e-07 ± 8.3e-09	265.4 ± 0.054
310 K, 1549 kPa	5.53e-07 ± 6.6e-09	263.3 ± 0.054
310 K, 1786.6 kPa	4.75e-07 ± 5.7e-09	261.55 ± 0.053
310 K, 2055.6 kPa	4.08e-07 ± 4.9e-09	259.54 ± 0.053
310 K, 2363 kPa	3.49e-07 ± 4.2e-09	257.19 ± 0.053
310 K, 2708.8 kPa	3e-07 ± 3.6e-09	254.5 ± 0.052
310 K, 3078 kPa	2.6e-07 ± 3.1e-09	251.56 ± 0.052
330 K, 201.27 kPa	5.17e-06 ± 6.2e-08	280.89 ± 0.057
330 K, 402.42 kPa	2.55e-06 ± 3.1e-08	279.73 ± 0.057
330 K, 626.86 kPa	1.62e-06 ± 1.9e-08	278.46 ± 0.056
330 K, 846.53 kPa	1.19e-06 ± 1.4e-08	277.21 ± 0.056
330 K, 1059.3 kPa	9.44e-07 ± 1.1e-08	276 ± 0.056
330 K, 1333 kPa	7.43e-07 ± 8.9e-09	274.43 ± 0.056
330 K, 1559.3 kPa	6.3e-07 ± 7.6e-09	273.12 ± 0.055
330 K, 1813.1 kPa	5.37e-07 ± 6.4e-09	271.64 ± 0.055
330 K, 2103.2 kPa	4.59e-07 ± 5.5e-09	269.94 ± 0.055
330 K, 2423.4 kPa	3.94e-07 ± 4.7e-09	268.06 ± 0.055
330 K, 2778.7 kPa	3.4e-07 ± 4.1e-09	265.94 ± 0.054
330 K, 3067.6 kPa	3.06e-07 ± 3.7e-09	264.21 ± 0.054
350 K, 234.16 kPa	4.97e-06 ± 6.4e-08	288.49 ± 0.058
350 K, 440.84 kPa	2.61e-06 ± 3.1e-08	287.51 ± 0.058
350 K, 660.1 kPa	1.73e-06 ± 2.1e-08	286.5 ± 0.058
350 K, 905.02 kPa	1.25e-06 ± 1.5e-08	285.36 ± 0.058
350 K, 1143.5 kPa	9.86e-07 ± 1.2e-08	284.25 ± 0.058
350 K, 1347.8 kPa	8.31e-07 ± 1e-08	283.31 ± 0.057
350 K, 1584.4 kPa	7.03e-07 ± 8.4e-09	282.2 ± 0.057
350 K, 1873 kPa	5.9e-07 ± 7.1e-09	280.86 ± 0.057
350 K, 2228.5 kPa	4.92e-07 ± 5.9e-09	279.21 ± 0.057
350 K, 2447.3 kPa	4.45e-07 ± 5.3e-09	278.19 ± 0.057
350 K, 2827.2 kPa	3.82e-07 ± 4.6e-09	276.43 ± 0.056
350 K, 3133.8 kPa	3.42e-07 ± 4.1e-09	275.01 ± 0.056
370 K, 335.49 kPa	3.82e-06 ± 4.6e-08	295.63 ± 0.06
370 K, 537.7 kPa	2.37e-06 ± 2.9e-08	294.86 ± 0.059
370 K, 749.31 kPa	1.7e-06 ± 2e-08	294.05 ± 0.059
370 K, 964.83 kPa	1.31e-06 ± 1.6e-08	293.24 ± 0.059
370 K, 1228.5 kPa	1.03e-06 ± 1.2e-08	292.24 ± 0.059
370 K, 1449.3 kPa	8.66e-07 ± 1e-08	291.41 ± 0.059
370 K, 1714.1 kPa	7.29e-07 ± 8.7e-09	290.42 ± 0.059
370 K, 2019 kPa	6.15e-07 ± 7.4e-09	289.27 ± 0.059
370 K, 2382.7 kPa	5.18e-07 ± 6.2e-09	287.93 ± 0.058
370 K, 2771.7 kPa	4.42e-07 ± 5.3e-09	286.5 ± 0.058
370 K, 3095.9 kPa	3.93e-07 ± 4.7e-09	285.31 ± 0.058
